Earlier results, collected in patent US20100262098A1, “ABSORBENT ARTICLE WITH ODOUR CONTROL SUBSTANCE” (SCA Hygiene Products AB, priority 2007, published 2010).

Details: autoxidation at 100° C.; not treated with antioxidants

Point of comparison: `CCCCCCCC/C=C\CCCCCCCC(=O)O` [Oleic acid], “Relative rate of oxidation” value 6. Against it:
- CCCCC/C=C\C/C=C\CCCCCCCC(=O)O [Linoleic acid] — higher, 64
- CCCCCCCCCCCCCCCCCC(=O)O [Stearic acid] — lower, 0.6
